The IC50 is the concentration at which inhibition is half-maximal. For orientation: inhibition means the relative decrease from the control value, in per cent. A lower inhibition goes with little suppression. As usually defined, the fraction unbound is the share of the substance not bound to proteins or other matrix. One may read the share remaining as the share of the starting amount still present when the sample was taken. Usually AUC stands for concentration integrated over time. A higher AUC goes with more exposure. One may read the Vd as a proportionality between amount in the body and measured concentration, not a real space. A low value points to confinement near the circulation. Broadly, the clearance is the rate of elimination divided by the concentration. Higher therefore signals a high capacity for elimination. Usually half-life stands for the time needed for the level to fall by half in the phase considered. A high value points to slow decline. What is called Cmax is the highest concentration seen after dosing. A word on the Tmax: it is the time from dosing to the highest level. The term bioavailability denotes the share of a dose that reaches the circulation, judged against a reference dose that is usually intravenous.

Like-named read-outs stand apart in the source and are kept apart here.

The test system of data set [1] is MERS-CoV. Kind of data set: microbe, parasite or virus in culture. To be noted: for IC50: read-out: IC50, inhibition of MERS-CoV infection. The format is cell-based.
The subject of data set [2] is MERS-CoV. Put plainly: microbe, parasite or virus in culture. To be noted: for IC50: read-out: IC50, MERS-CoV virus-induced cytopathic effect. The format is cell-based.
Data set [3] has as its system SARS-CoV. Kind of data set: microbe, parasite or virus in culture. To be noted: read-out: IC50, inhibition of SARS-CoV infection. Type of data set: cell-based.
The test system of data set [4] is SARS-CoV-2. Put plainly: microbe, parasite or virus in culture. The format is cell-based. The note with it: read-out: IC50, inhibition of SARS-CoV-2 infection.
Data set [5] has as its system MERS-CoV, SARS-CoV, and SARS-CoV-2. Kind of data set: organism not typed. The format is cell-based.
Data set [6] can be described thus: in vitro. The note with it: human.
Data set [7] can be described thus: Five-day repeated dose toxicity study. To be noted: mice; for Death / Time of 100% death after administration: intraperitoneal 10 mg/kg/day.
Data set [8] can be described thus: Rat pharmacokinetic study.
A short description of data set [9]: Liver microsomal metabolic stability, rat. To be noted: 1 μM compound, liver microsomes, 30 min. (In general: Liver microsomes are a subcellular fraction often used to study metabolism.)
The nature of data set [10]: Liver microsomal metabolic stability, mice. To be noted: 1 μM compound, liver microsomes, 30 min.
A short description of data set [11]: Liver microsomal metabolic stability, human. The note with it: 1 μM compound, liver microsomes, 30 min.
Data set [12] has as its system CYP450 isozymes. Kind of data set: CYP450 inhibition, text summary over isozymes.
Data set [13] is described as follows: Plasma protein binding, text summary over mouse and rat. The note with it: in mouse and rat.
The nature of data set [14]: Plasma protein binding, rat (rapid equilibrium dialysis). A general note: In equilibrium dialysis free small molecules cross a membrane that holds back macromolecules.
Data set [15] in a line: Plasma protein binding, mice (rapid equilibrium dialysis). To be noted: mouse.
Data set [16] is described as follows: Liver microsomal stability, text summary over mouse, rat and human. To be noted: rat, human, liver microsomes.
The mark [17] stands for this setting: Middle East respiratory syndrome-related coronavirus, Vero, 24 h.
The mark [18] stands for this setting: Middle East respiratory syndrome-related coronavirus, Calu-3, 72 h.
The mark [19] stands for this setting: Severe acute respiratory syndrome coronavirus, Vero.
[20] abbreviates: Severe acute respiratory syndrome coronavirus 2, Vero.
[21] abbreviates: intraperitoneal 2 mg/kg/day, data not shown.
The mark [22] stands for this setting: intraperitoneal 10 mg/kg/day for 5 days.
The mark [23] stands for this setting: read-out: IC50, anti-coronavirus activity (range over both compounds and the viruses).
The mark [24] stands for this setting: male, Sprague-Dawley, plasma, iv, 1 mg/kg.
[25] abbreviates: male, Sprague-Dawley, plasma, po, 2 mg/kg.

As to `C[C@]12CC[C@H](O)C[C@H]1CC[C@@H]1[C@@H]2CC[C@]2(C)[C@@H](c3ccc(=O)oc3)CC[C@]12O` [bufalin], the half-inhibitory concentration (IC50) was 18 nM in data set [1] (setting [17]); 544 nM in [2] (setting [18]); 544 nM in [2]; 16 nM in data set [3] (setting [19]); 19 nM in data set [4] (setting [20]); 16 to 19 nM in [5] (read-out: IC50, anti-SARS-CoV and SARS-CoV-2 activity (range over both viruses)). Also, in data set [2], the “Selectivity index (SI)” value was above 91.9. For the same compound, in [6], the CC50 was above 50000 nM. In addition, the Survival in [7] (setting [21]) is recorded as 100%. Besides, the Death in [7] is 100%. The “Time of 100% death after administration” value in data set [7] was 1 days.
For `CC(=O)O[C@H]1C[C@]2(O)[C@@H]3CC[C@@H]4C[C@@H](O)CC[C@]4(C)[C@H]3CC[C@]2(C)[C@H]1c1ccc(=O)oc1` [bufotalin], the IC50 worked out at 63 nM in data set [1] (setting [17]); 1630 nM in data set [2] (setting [18]); 27 nM in data set [3] (setting [19]); 72.9 nM in [4] (setting [20]); 72 ± 1 nM in data set [4]. Moreover, the “Selectivity index (SI)” value in data set [2] is given as above 30.7. Moreover, the CC50 in [6] is above 50000 nM. In data set [7] (setting [22]), the Survival amounted to 100%.
For `CC(=O)O[C@H]1[C@H]2O[C@]23[C@@H]2CC[C@@H]4C[C@@H](O)CC[C@]4(C)[C@H]2CC[C@]3(C)[C@H]1c1ccc(=O)oc1` [cinobufagin], the concentration for half-maximal inhibition (IC50) is 17 nM in [1] (setting [17]); 616 nM in [2] (setting [18]); 616 nM in [2]; 60.9 nM in [3] (setting [19]); 60 ± 2 nM in data set [3]; 72.2 nM in data set [4] (setting [20]). Further, the half-maximal inhibitory concentration (IC50) in data set [4] was determined as 72 ± 1 nM. The same compound had a CC50 in data set [6] above 50000 nM. In data set [8] (1 mg/kg IV injection, data not shown), the “Time within which all rats (n = 3) died” value was at most 10 min. Besides, the “Detection in plasma after PO injection” value in data set [8] (30 min after PO injection, 2 mg/kg, data not shown) is listed as “not detected”. The Survival in [7] (setting [21]) is 100%. The Death in data set [7] is on record as 100%. The “Time of 100% death after administration” value in data set [7] was found to be 2 days. Besides, the “MS (% of Remaining), Rat” value in [9] stood at 4.40%. In [10], the “MS (% of Remaining), Mice” value is given as 0.18%. Further, the “MS (% of Remaining), Human” value in data set [11] is 2.99%. Besides, in data set [12], the inhibition at 10 µM was 4 to 46%. Further, the fraction unbound at 4 h, 5 μM in [13] (mouse, rat, plasma, PPB rate) was 0.1 to 0.22; in data set [14], 0.218; in [15], 0.092. The compound also returned an amount remaining at 0.5 h, 1 μM in data set [16] below 5%.
Regarding `CC(=O)O[C@H]1[C@H]2O[C@]23[C@@H]2CC[C@]4(O)C[C@@H](O)CC[C@]4(C)[C@H]2CC[C@]3(C)[C@H]1c1ccc(=O)oc1` [cinobufotalin], the IC50 was determined as 230 nM in data set [1] (setting [17]); 231 ± 14 nM in data set [1]; 3960 nM in [2] (setting [18]); 429 nM in data set [3] (setting [19]); 429 ± 17 nM in data set [3]; 399 nM in data set [4] (setting [20]). Further, the half-inhibitory concentration (IC50) in data set [4] was 399 ± 8 nM; in [5] (setting [23]) it was 231 to 1610 nM. The “Selectivity index (SI)” value in [2] is above 12.6. This compound also had a CC50 in data set [6] above 50000 nM. For the same compound, in data set [7] (setting [22]), the Survival was determined as 100%.
Consider `C[C@H]1O[C@@H](O[C@H]2[C@@H](O)C[C@H](O[C@H]3[C@@H](O)C[C@H](O[C@H]4CC[C@@]5(C)[C@H](CC[C@@H]6[C@@H]5CC[C@]5(C)[C@@H](C7=CC(=O)OC7)CC[C@]65O)C4)O[C@@H]3C)O[C@@H]2C)C[C@H](O)[C@@H]1O` [digitoxin, Digitoxin], for which, in [1], the “Selectivity index (SI, CC50/IC50)” value is on record as above 147.9. In addition, the IC50 stood at 67 nM in [1] (setting [17]); 1500 nM in data set [2] (setting [18]); 62.1 nM in [3] (setting [19]); 62 ± 1 nM in [3]; 59.9 nM in data set [4] (setting [20]); 59 ± 1 nM in data set [4]. Further, the “Selectivity index (SI)” value in [2] is above 33.4. Also, the CC50 in data set [6] is above 50000 nM. Besides, the Survival in data set [7] (setting [21]) was determined as 100%. Moreover, in [7], the Death amounted to 100%. Further, in data set [7], the “Time of 100% death after administration” value was 4 days.
In the case of `C[C@]12CC[C@H](O)C[C@H]1CC[C@@H]1[C@@H]2CC[C@]2(C)[C@@H](c3ccc(=O)oc3)C[C@H]3O[C@]132` [resibufogenin], the IC50 in [1] (setting [17]) was 1610 nM; in data set [2] (setting [18]), 16000 nM; in [3] (setting [19]), 1360 ± 59 nM; in data set [4] (setting [20]) it was 1610 ± 63 nM; in data set [5] (setting [23]), 231 to 1610 nM. Further, in data set [2], the “Selectivity index (SI)” value was above 3.1. The same compound gave a CC50 in [6] above 50000 nM.
As for `C[C@]12CC[C@H](O)C[C@@]1(O)CC[C@@H]1[C@@H]2CC[C@]2(C)[C@@H](c3ccc(=O)oc3)CC[C@]12O` [telocinobufagin], the IC50 in data set [1] (setting [17]) came to 27 nM; in [2] (setting [18]), 464 nM; in data set [2], 465 nM; in [3] (setting [19]) it was 71.2 nM; in data set [3] it was 71 ± 2 nM; in [4] (setting [20]) it was 142 nM. For the same compound, in data set [4], the concentration for half-maximal inhibition (IC50) was determined as 142 ± 2 nM. Further, in [6], the CC50 is above 50000 nM. Also, the “Ft (oral bioavailability)” value in [8] (P.O., 2 mg/kg) is recorded as 33.2%. Also, the exposure (AUC) in [8] (setting [24]) is 604 ± 159 ng·h/mL; in data set [8] (setting [25]) it was 488 ± 204 ng·h/mL. The compound further gave a Vd in data set [8] (setting [24]) of 0.275 ± 0.169 L/kg. In data set [8] (setting [24]), this compound gave a clearance of 28.8 mL/min/kg. In addition, the figures for the half-life in [8] (setting [24]) and in [8] (setting [25]) were 13.5 ± 1.2 min and 30.6 ± 24.4 min, respectively. Further, the highest level in data set [8] (setting [25]) (Cmax) was 537 ± 227 ng/mL. Further, in data set [8] (setting [25]), the time to peak (Tmax) was 20 ± 8.64 min. Besides, the bioavailability in data set [8] (male, Sprague-Dawley, plasma, po, 2 mg/kg, Ft (oral bioavailability), P.O.) stood at 33%. In addition, the Survival in data set [7] (setting [22]) worked out at 100%. In data set [9], the “MS (% of Remaining), Rat” value was 31.9%. For the same compound, in data set [10], the “MS (% of Remaining), Mice” value is given as 21.7%. In data set [11], the “MS (% of Remaining), Human” value is on record as 15.1%. The same compound yielded an inhibition at 10 µM in data set [12] of 1.4 to 21%. In addition, the PPB rate in [13] was 96–97%. The fraction unbound at 4 h, 5 μM in [14] was 0.032; in data set [15] it was 0.022. Moreover, the amount remaining at 0.5 h, 1 μM in [16] was in the range of 15 to 30%.
